# Reference: ChEMBL document CHEMBL4229455, “Synthesis and anticancer activity of novel bisindolylhydroxymaleimide derivatives with potent GSK-3 kinase inhibition” (Bioorg Med Chem, 2018)
# Key:
# Assay type in all cases: functional
# [1] = test system: UO-31; test: Cytotoxicity against human UO31 cells assessed as cell growth at 0.01 uM after 48 hrs by SRB assay relative to control; settings: UO-31, 48 h, read-out: Activity
# [2] = test system: 786-0; test: Cytotoxicity against human 786-O cells assessed as cell growth at 0.1 uM after 48 hrs by SRB assay relative to control; settings: 786-0, 48 h, read-out: Activity
# [3] = test system: LOX IMVI; test: Cytotoxicity against human LOXIMVI cells assessed as cell growth at 100 uM after 48 hrs by SRB assay relative to control; settings: read-out: Activity
# [4] = test system: HOP-62; test: Cytotoxicity against human HOP62 cells after 48 hrs by SRB assay; settings: HOP-62, 48 h; for CC50: read-out: LC50 (the source's name)
# [5] = test system: SK-MEL-28; test: Cytotoxicity against human SK-MEL-28 cells after 48 hrs by SRB assay; settings: SK-MEL-28, 48 h
# [6] = test system: NCI-H322M; test: Cytotoxicity against human NCI-H322M cells assessed as cell growth at 0.01 uM after 48 hrs by SRB assay relative to control; settings: read-out: Activity
# [7] = test system: NCI-H322M; test: Cytotoxicity against human NCI-H322M cells assessed as cell growth at 0.1 uM after 48 hrs by SRB assay relative to control; settings: read-out: Activity
# [8] = test system: NCI-H322M; test: Cytotoxicity against human NCI-H322M cells assessed as cell growth at 1 uM after 48 hrs by SRB assay relative to control; settings: read-out: Activity
# [9] = test system: NCI-H322M; test: Cytotoxicity against human NCI-H322M cells assessed as cell growth at 100 uM after 48 hrs by SRB assay relative to control; settings: read-out: Activity
# [10] = test system: NCI-H322M; test: Cytotoxicity against human NCI-H322M cells after 48 hrs by SRB assay
# [11] = test system: U-251; test: Cytotoxicity against human U251 cells assessed as cell growth at 0.01 uM after 48 hrs by SRB assay relative to control; settings: U-251, 48 h, read-out: Activity
# [12] = test system: U-251; test: Cytotoxicity against human U251 cells assessed as cell growth at 0.1 uM after 48 hrs by SRB assay relative to control; settings: U-251, 48 h, read-out: Activity
# [13] = test system: U-251; test: Cytotoxicity against human U251 cells assessed as cell growth at 1 uM after 48 hrs by SRB assay relative to control; settings: U-251, 48 h, read-out: Activity
# [14] = test system: U-251; test: Cytotoxicity against human U251 cells assessed as cell growth at 100 uM after 48 hrs by SRB assay relative to control; settings: U-251, 48 h, read-out: Activity
# [15] = test system: U-251; test: Cytotoxicity against human U251 cells after 48 hrs by SRB assay; settings: U-251, 48 h
# [16] = test system: EKVX; test: Cytotoxicity against human EKVX cells assessed as cell growth at 0.01 uM after 48 hrs by SRB assay relative to control; settings: read-out: Activity
# [17] = test system: OVCAR-4; test: Cytotoxicity against human OVCAR4 cells assessed as cell growth at 0.01 uM after 48 hrs by SRB assay relative to control; settings: OVCAR-4, 48 h, read-out: Activity
# [18] = test system: EKVX; test: Cytotoxicity against human EKVX cells assessed as cell growth at 0.1 uM after 48 hrs by SRB assay relative to control; settings: read-out: Activity
# [19] = test system: OVCAR-4; test: Cytotoxicity against human OVCAR4 cells assessed as cell growth at 0.1 uM after 48 hrs by SRB assay relative to control; settings: OVCAR-4, 48 h, read-out: Activity
# [20] = test system: EKVX; test: Cytotoxicity against human EKVX cells assessed as cell growth at 1 uM after 48 hrs by SRB assay relative to control; settings: read-out: Activity
# [21] = test system: OVCAR-4; test: Cytotoxicity against human OVCAR4 cells assessed as cell growth at 1 uM after 48 hrs by SRB assay relative to control; settings: OVCAR-4, 48 h, read-out: Activity
# [22] = test system: EKVX; test: Cytotoxicity against human EKVX cells assessed as cell growth at 100 uM after 48 hrs by SRB assay relative to control; settings: read-out: Activity
# [23] = test system: OVCAR-4; test: Cytotoxicity against human OVCAR4 cells assessed as cell growth at 100 uM after 48 hrs by SRB assay relative to control; settings: OVCAR-4, 48 h, read-out: Activity
# [24] = test system: SK-OV-3; test: Cytotoxicity against human SKOV3 cells assessed as cell growth at 100 uM after 48 hrs by SRB assay relative to control; settings: SK-OV-3, 48 h, read-out: Activity
# [25] = test system: EKVX; test: Cytotoxicity against human EKVX cells after 48 hrs by SRB assay
# [26] = test system: OVCAR-4; test: Cytotoxicity against human OVCAR4 cells after 48 hrs by SRB assay; settings: OVCAR-4, 48 h
# [27] = read-out: LC50 (the source's name)
smiles,measurement,setting,value
N#CCCCCCn1cc(C2=C(c3cn(CCCCCC#N)c4ccccc34)C(=O)N(O)C2=O)c2ccccc21,growth at 0.01 µM,[1],97%
same,growth at 0.1 µM,[2],101%
same,growth at 100 µM,[3],-9%
same,GI50,[4],7.94 µM
same,TGI,[4],> 100 µM
same,CC50,[4],> 100 µM
same,GI50,[5],6.07 µM
same,LC50,[5],> 100 µM
same,TGI,[5],> 100 µM
same,growth at 0.01 µM,[6],98%
same,growth at 0.1 µM,[7],99%
same,growth at 1 µM,[8],100%
same,growth at 100 µM,[9],-4%
same,GI50,[10],8.53 µM
same,TGI,[10],84.6 µM
same,CC50,[10]; [27],> 100 µM
same,growth at 0.01 µM,[11],102%
same,growth at 0.1 µM,[12],100%
same,growth at 1 µM,[13],100%
same,growth at 100 µM,[14],5%
same,GI50,[15],4.65 µM
same,TGI,[15],> 100 µM
same,CC50,[15]; [27],> 100 µM
Cn1cc(C2=C(c3cn(C)c4ncccc34)C(=O)NC2=O)c2ccccc21,growth at 0.01 µM,[16],91%
same,growth at 0.01 µM,[17],102%
same,growth at 0.01 µM,[1],90%
same,growth at 0.1 µM,[18],84%
same,growth at 0.1 µM,[19],87%
same,growth at 0.1 µM,[2],101%
same,growth at 1 µM,[20],65%
same,growth at 1 µM,[21],85%
same,growth at 100 µM,[22],-42%
same,growth at 100 µM,[3],-18%
same,growth at 100 µM,[23],-3%
same,growth at 100 µM,[24],-7%
same,GI50,[25],1.83 µM
same,TGI,[25],15.1 µM
same,CC50,[25]; [27],> 100 µM
same,GI50,[4],3.69 µM
same,TGI,[4],36.7 µM
same,CC50,[4],> 100 µM
same,GI50,[5],3.05 µM
same,TGI,[5],17.7 µM
same,GI50,[26],4.86 µM
same,TGI,[26],83.1 µM
same,CC50,[26]; [27],> 100 µM
